Structures can show the parent of a compound that is named as a salt.
Legend:
[1] = target: T1, TGR5 (STC1 cell line) (Mus musculus, UniProt Q80SS6); experiment: STC1 cAMP Agonist EC50 Determination
T1 sequence (Q80SS6 1-329): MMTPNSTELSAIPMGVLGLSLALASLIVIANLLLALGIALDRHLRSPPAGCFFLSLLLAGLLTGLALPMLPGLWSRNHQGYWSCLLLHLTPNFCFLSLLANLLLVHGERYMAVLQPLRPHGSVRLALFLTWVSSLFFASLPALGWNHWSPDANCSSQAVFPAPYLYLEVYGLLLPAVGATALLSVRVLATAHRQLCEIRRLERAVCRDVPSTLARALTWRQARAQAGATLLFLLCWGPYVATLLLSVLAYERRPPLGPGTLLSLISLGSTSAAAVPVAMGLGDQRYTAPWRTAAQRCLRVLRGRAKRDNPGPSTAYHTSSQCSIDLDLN

[2] = target: T2, TGR5 (NCI-H716 cell line) (Homo sapiens, UniProt Q8TDU6); experiment: NCI-H716 cAMP Agonist EC50 Determination
T2 sequence (Q8TDU6 1-330): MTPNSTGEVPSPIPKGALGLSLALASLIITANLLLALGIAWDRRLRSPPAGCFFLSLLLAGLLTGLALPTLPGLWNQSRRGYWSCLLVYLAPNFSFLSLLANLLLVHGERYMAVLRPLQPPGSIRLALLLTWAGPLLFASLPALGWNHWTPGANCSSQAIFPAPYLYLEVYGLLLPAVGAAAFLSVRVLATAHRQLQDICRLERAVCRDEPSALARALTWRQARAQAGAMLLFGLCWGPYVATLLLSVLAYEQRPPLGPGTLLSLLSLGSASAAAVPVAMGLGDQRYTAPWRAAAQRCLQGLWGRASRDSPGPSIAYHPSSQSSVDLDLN
Description: Cells were cultured in suspension using RPM containing: 10% HI FBS, and 1× Penn/Strep and were cryostored (1E7 cells/vial in 5% DMSO).
A Normalized signal (NS) is generated by the Envision for each well ((Read 1/Read 2)×10,000).
The data from the Envision were imported to an Excel worksheet. nM cAMP is calculated for each well from the cAMP standard curves located on each plate by first calculating the slope and deriving the intercept (b).
[formula] [formula] [formula] EC50 values were determined from a 4-point fit (Hill equation) of a single 11-point compound dosing.

SMILES	EC50 [1] [µM]	EC50 [2] [µM]
COc1cc(C2CCCc3nc(SCc4c(F)cccc4Cl)n(-c4ccc(F)c(F)c4F)c32)ccc1Cl (stereo not drawn) [Example 9, 7-(4-chloro-3-methoxyphenyl)-2-((2-chloro-6-fluorobenzyl)thio)-1-(2,3,4-trifluorophenyl)-4,5,6,7-tetrahydro-1H-benzo[d]imidazole]	9.86	> 50
COc1cc(C2CCCc3nc(SCc4c(F)cccc4Cl)n(-c4cc(F)c(F)c(F)c4)c32)ccc1Cl (stereo not drawn) [Example 10, 7-(4-chloro-3-methoxyphenyl)-2-((2-chloro-6-fluorobenzyl)thio)-1-(3,4,5-trifluorophenyl)-4,5,6,7-tetrahydro-1H-benzo[d]imidazole]	0.79	> 50
COc1cc(C2CCCc3nc(SCc4c(F)cccc4Cl)n(-c4cc(F)c(F)cc4F)c32)ccc1Cl (stereo not drawn) [Example 11, 7-(4-chloro-3-methoxyphenyl)-2-((2-chloro-6-fluorobenzyl)thio)-1-(2,4,5-trifluorophenyl)-4,5,6,7-tetrahydro-1H-benzo[d]imidazole]	3.71	> 50
COc1cc(C2CCCc3nc(SCc4c(F)cc(C(=O)O)cc4F)n(-c4ccc(F)cc4)c32)ccc1Cl (stereo not drawn) [Example 12, 4-((7-(4-chloro-3-methoxyphenyl)-1-(4-fluorophenyl)-4,5,6,7-tetrahydro-1H-benzo[d]imidazol-2-ylthio)methyl)-3,5-difluorobenzoic acid trifluoroacetic acid]	19.7	> 50
COc1cc(C2CCCc3nc(SCc4c(F)cc(C(=O)NCC[N+](C)(C)C)cc4F)n(-c4ccc(F)cc4)c32)ccc1Cl (stereo not drawn) [Example 13, 2-(4-((7-(4-chloro-3-methoxyphenyl)-1-(4-fluorophenyl)-4,5,6,7-tetrahydro-1H-benzo[d]imidazol-2-ylthio)methyl)-3,5-difluorobenzamido)-N,N,N-trimethylethanaminium 2,2,2-trifluoroacetate]	8.04	> 50
COc1cc(C2CCCc3nc(SCc4c(F)cccc4C#N)n(-c4ccc(F)cc4)c32)ccc1Cl (stereo not drawn) [Example 14, 2-([[7-(4-chloro-3-methoxyphenyl)-1-(4-fluorophenyl)-4,5,6,7-tetrahydro-1H-1,3-benzodiazol-2-yl]sulfanyl]methyl)-3-fluorobenzonitrile]	0.53	> 50
COc1cc(C2CCCc3nc(SCc4c(F)cccc4C(F)(F)F)n(-c4ccc(F)cc4)c32)ccc1Cl (stereo not drawn) [Example 15, 7-(4-chloro-3-methoxyphenyl)-2-([[2-fluoro-6-(trifluoromethyl)phenyl]methyl]sulfanyl)-1-(4-fluorophenyl)-4,5,6,7-tetrahydro-1H-1,3-benzodiazole]	13.3	> 50
COc1cc(C2CCCc3nc(SCc4c(F)ccc(F)c4Cl)n(-c4ccc(F)cc4)c32)ccc1Cl (stereo not drawn) [Example 20, 2-[[(2-chloro-3,6-difluorophenyl)methyl]sulfanyl]-7-(4-chloro-3-methoxyphenyl)-1-(4-fluorophenyl)-4,5,6,7-tetrahydro-1H-1,3-benzodiazole]	0.51	> 50
COc1cc(C2CCCc3nc(SCc4c(F)cc(S(N)(=O)=O)cc4F)n(-c4ccc(F)cc4)c32)ccc1Cl (stereo not drawn) [Example 21a, 4-((7-(4-chloro-3-methoxyphenyl)-1-(4-fluorophenyl)-4,5,6,7-tetrahydro-1H-benzo[d]imidazol-2-ylthio)methyl)-3,5-difluorobenzenesulfonamide]	0.69	48.4

Other lines, results leading:

EC50 [1] [µM]	EC50 [2] [µM]	SMILES
8.12	> 50	COc1cc(C2CCCc3nc(SCc4c(F)cc(S(=O)(=O)NS(C)(=O)=O)cc4F)n(-c4ccc(F)cc4)c32)ccc1Cl (stereo not drawn) [Example 21b, 4-((7-(4-chloro-3-methoxyphenyl)-1-(4-fluorophenyl)-4,5,6,7-tetrahydro-1H-benzo[d]imidazol-2-ylthio)methyl)-3,5-difluoro-N-(methylsulfonyl)benzenesulfonamide]
32.6	> 50	COc1cc(C2CCCc3nc(SCc4c(F)cc(S(=O)(=O)NCCC[N+](C)(C)C)cc4F)n(-c4ccc(F)cc4)c32)ccc1Cl (stereo not drawn) [Example 22, 3-(4-((7-(4-chloro-3-methoxyphenyl)-1-(4-fluorophenyl)-4,5,6,7-tetrahydro-1H-benzo[d]imidazol-2-ylthio)methyl)-3,5-difluorophenylsulfonamido)-N,N,N-trimethylpropan-1-aminium 2,2,2-trifluoroacetate]
0.66	> 50	COc1cc(C2CCCc3nc(SCc4c(F)cc(OCCOCCOCCOCCO)cc4F)n(-c4ccc(F)cc4)c32)ccc1Cl (stereo not drawn) [Example 23, 1-[4-([[7-(4-chloro-3-methoxyphenyl)-1-(4-fluorophenyl)-4,5,6,7-tetrahydro-1H-1,3-benzodiazol-2-yl]sulfanyl]methyl)-3,5-difluorophenyl]-1,4,7,10-tetraoxadodecan-12-ol]
3.92	> 50	COc1cc(C2CCCc3nc(SCc4c(F)cc(OCCN(C)C)cc4F)n(-c4ccc(F)cc4)c32)ccc1Cl (stereo not drawn) [Example 24, 2-(4-((7-(4-chloro-3-methoxyphenyl)-1-(4-fluorophenyl)-4,5,6,7-tetrahydro-1H-benzo[d]imidazol-2-ylthio)methyl)-3,5-difluorophenoxy)-N,N-dimethylethanamine Trifluoromethylacetic acid salt]
0.96	> 50	COc1cc(C2CCCc3nc(SCc4c(F)cc(OCc5nnn[nH]5)cc4F)n(-c4ccc(F)cc4)c32)ccc1Cl (stereo not drawn) [Example 30, 7-(4-chloro-3-methoxyphenyl)-2-([[2,6-difluoro-4-(1H-1,2,3,4-tetrazol-5-ylmethoxy)phenyl]methyl]sulfanyl)-1-(4-fluorophenyl)-4,5,6,7-tetrahydro-1H-1,3-benzodiazole]
4.1	4.44	COc1cc(C2CCCc3nc(SCc4c(F)ccc(OCCN(C)C)c4F)n(-c4ccc(F)cc4)c32)ccc1Cl (stereo not drawn) [Example 31, [2-[3-([[17-(4-chloro-3-methoxyphenyl)-1-(4-fluorophenyl)-4,5,6,7-tetrahydro-1H-1,3-benzodiazol-2-yl]sulfanyl]methyl)-2,4-difluorophenoxy]ethyl]dimethylamine]
1.38	16.9	COc1cc(C2CCCc3nc(SCc4c(F)ccc(OCCOCCOCCN(C)C)c4F)n(-c4ccc(F)cc4)c32)ccc1Cl (stereo not drawn) [Example 32, 7-(4-chloro-3-methoxyphenyl)-2-([[3-(2-[2-[2-(dimethylamino)ethoxy]ethoxy]ethoxy)-2,6-difluorophenyl]methyl]sulfanyl)-1-(4-fluorophenyl)-4,5,6,7-tetrahydro-1H-1,3-benzodiazole hydrochloride]
4.9	> 50	COc1cc(C2CCCc3nc(SCc4c(F)cc(OCCOCCOCCN(C)C)cc4F)n(-c4ccc(F)cc4)c32)ccc1Cl (stereo not drawn) [Example 33, 2-(2-(2-(4-((7-(4-chloro-3-methoxyphenyl)-1-(4-fluorophenyl)-4,5,6,7-tetrahydro-1H-benzo[d]imidazol-2-ylthio)methyl)-3,5-difluorophenoxy)ethoxy)ethoxy)-N,N-dimethylethanamine hydrochloride]
3.9	> 50	COc1cc(C2CCCc3nc(SCc4c(F)cc(OCCOCCN(C)C)cc4F)n(-c4ccc(F)cc4)c32)ccc1Cl (stereo not drawn) [Example 34, (2-[2-[4-([[7-(4-chloro-3-methoxyphenyl)-1-(4-fluorophenyl)-4,5,6,7-tetrahydro-1H-1,3-benzodiazol-2-yl]sulfanyl]methyl)-3,5-difluorophenoxy]ethoxy]ethyl)dimethylamine hydrochloride]
3.15	9.3	COc1cc(C2CCCc3nc(SCc4c(F)ccc(OCCOCCN(C)C)c4F)n(-c4ccc(F)cc4)c32)ccc1Cl (stereo not drawn) [Example 35, (2-[2-[3-([[7-(4-chloro-3-methoxyphenyl)-1-(4-fluorophenyl)-4,5,6,7-tetrahydro-1H-1,3-benzodiazol-2-yl]sulfanyl]methyl)-2,4-difluorophenoxy]ethoxy]ethyl)dimethylamine hydrochloride]
1.34	> 50	COc1cc(C2CCCc3nc(SCc4c(F)cc(C#N)cc4F)n(-c4ccc(F)cc4)c32)ccc1Cl (stereo not drawn) [Example 36, 4-([[7-(4-chloro-3-methoxyphenyl)-1-(4-fluorophenyl)-4,5,6,7-tetrahydro-1H-1,3-benzodiazol-2-yl]sulfanyl]methyl)-3,5-difluorobenzonitrile]
14.9	> 50	COc1cc(C2CCCc3nc(SCc4c(F)cc(/C=C5\SC(=O)NC5=O)cc4F)n(-c4ccc(F)cc4)c32)ccc1Cl (stereo not drawn) [Example 37, (5Z)-5-[[4-([[7-(4-chloro-3-methoxyphenyl)-1-(4-fluorophenyl)-4,5,6,7-tetrahydro-1H-1,3-benzodiazol-2-yl]sulfanyl]methyl)-3,5-difluorophenyl]methylidene]-1,3-thiazolidine-2,4-dione]

From US10077241B2 (Janssen Pharmaceutica NV, priority 2014, dated 2018)
